The source made the active and inactive calls. No cut-off for these calls is given here.
Legend:
SH-SY5Y [1] = experiment: Inhibition of ischemic cell death in human SH-SY5Y cells assessed as LDH release at 20 uM pretreated for 30 mins followed by addition of 500 uM H2O2 measured after 6 hrs; type: functional, cell-based
[2] = target: T1, FAS-associated factor 1 (Homo sapiens) (UniProt Q9UNN5); experiment: Binding affinity to FLAG-tagged FAF1 (unknown origin) expressed in H2O2-treated human SH-SY5Y cells after 12 hrs by immunoblot analysis; type: cell-based
T1 sequence (whole entry): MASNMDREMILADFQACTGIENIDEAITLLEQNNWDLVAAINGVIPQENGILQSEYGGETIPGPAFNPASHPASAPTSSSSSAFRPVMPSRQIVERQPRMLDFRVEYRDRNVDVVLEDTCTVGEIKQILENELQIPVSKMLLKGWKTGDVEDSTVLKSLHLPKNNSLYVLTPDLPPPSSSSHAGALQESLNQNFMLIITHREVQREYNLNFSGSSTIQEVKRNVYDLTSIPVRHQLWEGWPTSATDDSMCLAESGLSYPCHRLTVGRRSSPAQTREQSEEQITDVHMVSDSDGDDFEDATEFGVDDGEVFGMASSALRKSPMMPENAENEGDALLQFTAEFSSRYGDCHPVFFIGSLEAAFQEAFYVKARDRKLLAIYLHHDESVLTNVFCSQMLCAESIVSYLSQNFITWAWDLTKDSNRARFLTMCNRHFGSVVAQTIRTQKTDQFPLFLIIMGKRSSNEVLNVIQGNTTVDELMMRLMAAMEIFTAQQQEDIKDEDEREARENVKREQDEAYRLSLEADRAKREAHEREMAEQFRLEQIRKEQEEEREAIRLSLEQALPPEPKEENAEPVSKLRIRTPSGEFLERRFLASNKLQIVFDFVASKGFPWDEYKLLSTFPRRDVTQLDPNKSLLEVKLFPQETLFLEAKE

SH-SY5Y [3] = experiment: Inhibition of ischemic cell death in human SH-SY5Y cells assessed as cell viability pretreated for 30 mins followed by addition of 500 uM H2O2 measured after 6 hrs by MTS assay; type: functional, cell-based
[4] = target: T1, FAS-associated factor 1 (Homo sapiens); experiment: Binding affinity to FLAG-tagged FAF1 (unknown origin) expressed in H2O2-treated human SH-SY5Y cells at 100 uM after 12 hrs by immunoblot analysis; type: cell-based

Row | inhibition [2] | inhibition [4] | SMILES | inhibition (SH-SY5Y [1]) | inhibition (SH-SY5Y [3])
1 | Active |  | CN(C)c1cccc2c(S(=O)(=O)NCCCCOc3ccc(CCn4cc(NC(=O)CSc5ccc(Br)cc5)c(C(=O)O)n4)cc3)cccc12 | Active | Active
2 |  |  | O=C(CSc1ccc(Br)cc1)Nc1cn(CCc2ccccc2)nc1C(=O)O | Active | Active
3 |  | Active | O=C(CCCC[C@@H]1SC[C@@H]2NC(=O)N[C@@H]21)NCCCCOc1ccc(CCn2cc(NC(=O)CSc3ccc(Br)cc3)c(C(=O)O)n2)cc1 | Active | Active

Reference: ChEMBL document CHEMBL3758172, “Design and synthesis of fluorescent and biotin tagged probes for the study of molecular actions of FAF1 inhibitor” (Bioorg Med Chem Lett, 2016)
